One series has as its system SARS-CoV-2. In words: microbe, parasite or virus in culture. To be noted: Severe acute respiratory syndrome coronavirus 2, WIV04, Vero C1008.
The target in series [1] is Replicase polyprotein 1ab (Severe acute respiratory syndrome coronavirus 2, UniProt P0DTD1). In words: Inhibition of recombinant SARS-CoV-2 3CLpro using MCA-AVLQSGFR-Lys(Dnp)-Lys-NH2 as substrate incubated for 1.5 hrs by fluorescence based analysis.
The nature of series [2]: Cytotoxicity against african green monkey Vero E6 cells assessed as cell viability incubated for 48 hrs by CCK-8 assay. The series is classed as toxicity, cell-based, Vero C1008. To be noted: chlorocebus sabaeus.
Series [3] in a line: Inhibition of human recombinant Cathepsin L-like protease using Z-FR-AMC as substrate at 10 uM preincubated for 30 mins followed by substrate addition and measured after 1.5 hrs by […].
The nature of series [4]: Inhibition of human recombinant Cathepsin L-like protease using Z-FR-AMC as substrate preincubated for 30 mins followed by substrate addition and measured after 1.5 hrs by fluorescence based analysis.

Where a SMILES comes first, the peptide text is derived from it. The star is where a group is joined. Nicotinoyl = O=C(c1cccnc1)*; Bz = O=C(c1ccccc1)* A value given as a limit tells only on which side of the number the result lay.

The term EC50 denotes the concentration giving half of the maximal effect. By IC50 is commonly meant the concentration at which inhibition is half-maximal. The CC50 is the concentration at which the toxic effect on the cells reaches its halfway point.

Description for SARS-CoV-2: Antiviral activity against SARS-CoV-2 WIV04 infected in African green monkey Vero E6 pre-infected with cells for 1 hr followed by compound treatment and measured after 24 hrs by qRT-PCR analysis

`COC(=O)[C@H](Cc1ccccc1)NC(=O)[C@H](CC(C)C)NC(=O)/C=C/c1ccccc1` returned an EC50 in the series with SARS-CoV-2 of more than 100000 nM. Further, in series [1], the IC50 is more than 10000 nM. The CC50 at 48 h in series [2] is more than 100000 nM.

Turning to `CC(C)C[C@H](NC(=O)/C=C/c1ccccc1)C(=O)N[C@H](C=O)C[C@@H]1CCCNC1=O`, in the series on SARS-CoV-2, a half-maximal response (EC50) required 1510 nM. In addition, the CC50 at 48 h in series [2] was more than 100000 nM.

In turn, `O=C(N[C@@H](Cc1ccc(F)cc1)C(=O)N[C@@H](Cc1ccccc1)C(=O)CCl)c1ccc2[nH]ccc2c1` gave an EC50 in the series on SARS-CoV-2 of 410 nM. Besides, in series [3], the IC50 turned out to be 0.56 nM.

As to `O=C(N[C@@H](Cc1cccc(F)c1)C(=O)N[C@@H](Cc1ccccc1)C(=O)CCl)c1ccc2[nH]ccc2c1`, a half-maximal response in the series on SARS-CoV-2 (EC50) required 1750 nM. Besides, the 50% inhibitory concentration (IC50) in series [3] is 0.72 nM.

On to `C#CCCCCOc1ccc(/C=C/C(=O)N[C@@H](CC(C)C)C(=O)N[C@@H](Cc2ccccc2)C(=O)OC)cc1`, for which the EC50 in the series with SARS-CoV-2 was more than 100000 nM. Besides, in series [1], the IC50 is more than 10000 nM. In series [2], the CC50 at 48 h was more than 100000 nM.

On to `CC(C)C[C@H](NC(=O)/C=C/c1ccccc1)C(=O)N[C@H](C=O)C[C@@H]1CCNC1=O`, for which the CC50 at 48 h in series [2] was more than 100000 nM.

As to `CC(C)C[C@H](NC(=O)c1ccccc1)C(=O)N[C@H](C=O)Cc1ccccc1` (Bz-Leu-Phe-aldehyde), the IC50 is 7.56 nM in series [4] and more than 10000 nM in series [1].

`O=C(N[C@@H](Cc1ccccc1)C(=O)N[C@@H](Cc1ccccc1)C(=O)CCl)c1cccc2ccccc12` registered a concentration for a half-maximal effect (EC50) with SARS-CoV-2 of 400 nM. The IC50 in series [3] turned out to be 0.41 nM.

Consider `COc1ccc(C(=O)N[C@@H](CC(C)C)C(=O)N[C@H](C=O)Cc2ccccc2)cc1`, for which the values for the IC50 in series [4] and in series [1] were 6.06 nM and more than 10000 nM, respectively.

On to `CC(C)C[C@H](NC(=O)/C=C/c1ccccc1)C(=O)N[C@H](C=O)CCc1ccccc1`, for which the IC50 in series [4] was 26 nM; in series [1], more than 10000 nM.

Regarding `O=C[C@H](Cc1ccccc1)NC(=O)[C@H](CC1CCCCC1)NC(=O)/C=C/c1ccccc1`, the IC50 was 53 nM in series [4] and more than 10000 nM in series [1].

On to `CC(C)C[C@H](NC(=O)c1ccsc1)C(=O)N[C@H](C=O)Cc1ccccc1`, for which the IC50 in series [4] was 8.15 nM; in series [1] it was more than 10000 nM.

As for `CC(C)C[C@H](NC(=O)c1ccccn1)C(=O)N[C@H](C=O)Cc1ccccc1`, the IC50 is 26.4 nM in series [4] and more than 10000 nM in series [1].

Regarding `CC(C)C[C@H](NC(=O)/C=C/c1ccccc1F)C(=O)N[C@H](C=O)Cc1ccccc1`, the values for the IC50 in series [4] and in series [1] were 16.5 nM and more than 10000 nM, respectively.

In the case of `O=C(N[C@@H](Cc1ccccc1)C(=O)N[C@@H](Cc1ccccc1)C(=O)CCl)c1ccc2[nH]ccc2c1`, the IC50 in series [3] came out at 0.8 nM.

`O=C(N[C@@H](Cc1cccc(F)c1)C(=O)N[C@@H](Cc1ccccc1)C(=O)CCl)c1cccc2ccccc12`: in series [3], the IC50 was found to be 1.34 nM.

For `CC(C)C[C@H](NC(=O)/C=C/c1ccc(Cl)cc1)C(=O)N[C@H](C=O)Cc1ccccc1`, the IC50 was 23.5 nM in series [4] and more than 10000 nM in series [1].

Regarding `CC(C)C[C@H](NC(=O)/C=C/c1cccc(Cl)c1)C(=O)N[C@H](C=O)Cc1ccccc1`, the IC50 in series [4] is 27.1 nM; in series [1], more than 10000 nM.

Consider `CC(C)C[C@H](NC(=O)/C=C/c1ccccc1)C(=O)N[C@H](C=O)CC1CCCCC1`, for which the IC50 in series [4] is 47.8 nM; in series [1], more than 10000 nM.

As for `CC(C)C[C@H](NC(=O)c1cccnc1)C(=O)N[C@H](C=O)Cc1ccccc1` (Nicotinoyl-Leu-Phe-aldehyde), the IC50 was 14.4 nM in series [4] and more than 10000 nM in series [1].

On to `CC(C)C[C@H](NC(=O)c1ccoc1)C(=O)N[C@H](C=O)Cc1ccccc1`, for which the IC50 in series [4] is 24.2 nM; in series [1], more than 10000 nM.

With `COc1ccc(/C=C/C(=O)N[C@@H](CC(C)C)C(=O)N[C@H](C=O)Cc2ccccc2)cc1`, the half-maximal inhibitory concentration (IC50) in series [4] is 55.4 nM; in series [1] it was more than 10000 nM.
